Assay results reported in article PMC6254361, “The properties of Msh2–Msh6 ATP binding mutants suggest a signal amplification mechanism in DNA mismatch repair” (The Journal of Biological Chemistry, 2018).

Target: T1, Msh2–Msh6 (Saccharomyces cerevisiae, UniProt P25847+Q03834)
T1 sequence (P25847 1-964): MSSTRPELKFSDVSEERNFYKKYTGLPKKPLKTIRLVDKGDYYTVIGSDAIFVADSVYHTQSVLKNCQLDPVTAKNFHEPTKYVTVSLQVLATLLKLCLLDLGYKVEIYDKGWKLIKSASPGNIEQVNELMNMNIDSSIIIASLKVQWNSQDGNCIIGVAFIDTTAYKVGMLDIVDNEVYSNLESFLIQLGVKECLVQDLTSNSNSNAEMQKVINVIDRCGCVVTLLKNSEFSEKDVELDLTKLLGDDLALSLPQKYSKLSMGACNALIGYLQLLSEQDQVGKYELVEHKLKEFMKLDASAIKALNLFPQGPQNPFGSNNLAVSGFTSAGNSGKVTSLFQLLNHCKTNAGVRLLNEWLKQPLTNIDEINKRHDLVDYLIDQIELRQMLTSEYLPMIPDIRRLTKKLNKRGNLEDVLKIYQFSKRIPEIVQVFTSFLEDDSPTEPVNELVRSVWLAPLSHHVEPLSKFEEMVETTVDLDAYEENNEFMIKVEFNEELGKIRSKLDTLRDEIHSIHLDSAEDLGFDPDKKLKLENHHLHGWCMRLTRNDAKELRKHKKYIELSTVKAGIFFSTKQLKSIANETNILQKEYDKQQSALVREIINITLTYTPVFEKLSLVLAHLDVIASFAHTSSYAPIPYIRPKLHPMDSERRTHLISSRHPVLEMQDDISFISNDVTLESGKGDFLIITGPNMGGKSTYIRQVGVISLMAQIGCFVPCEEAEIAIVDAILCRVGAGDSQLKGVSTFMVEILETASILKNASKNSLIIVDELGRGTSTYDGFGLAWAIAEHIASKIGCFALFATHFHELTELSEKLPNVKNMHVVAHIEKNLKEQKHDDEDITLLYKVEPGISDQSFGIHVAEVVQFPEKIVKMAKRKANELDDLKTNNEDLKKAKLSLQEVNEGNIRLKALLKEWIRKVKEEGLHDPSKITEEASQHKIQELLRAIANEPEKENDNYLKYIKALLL
T1 sequence (Q03834 1-1242): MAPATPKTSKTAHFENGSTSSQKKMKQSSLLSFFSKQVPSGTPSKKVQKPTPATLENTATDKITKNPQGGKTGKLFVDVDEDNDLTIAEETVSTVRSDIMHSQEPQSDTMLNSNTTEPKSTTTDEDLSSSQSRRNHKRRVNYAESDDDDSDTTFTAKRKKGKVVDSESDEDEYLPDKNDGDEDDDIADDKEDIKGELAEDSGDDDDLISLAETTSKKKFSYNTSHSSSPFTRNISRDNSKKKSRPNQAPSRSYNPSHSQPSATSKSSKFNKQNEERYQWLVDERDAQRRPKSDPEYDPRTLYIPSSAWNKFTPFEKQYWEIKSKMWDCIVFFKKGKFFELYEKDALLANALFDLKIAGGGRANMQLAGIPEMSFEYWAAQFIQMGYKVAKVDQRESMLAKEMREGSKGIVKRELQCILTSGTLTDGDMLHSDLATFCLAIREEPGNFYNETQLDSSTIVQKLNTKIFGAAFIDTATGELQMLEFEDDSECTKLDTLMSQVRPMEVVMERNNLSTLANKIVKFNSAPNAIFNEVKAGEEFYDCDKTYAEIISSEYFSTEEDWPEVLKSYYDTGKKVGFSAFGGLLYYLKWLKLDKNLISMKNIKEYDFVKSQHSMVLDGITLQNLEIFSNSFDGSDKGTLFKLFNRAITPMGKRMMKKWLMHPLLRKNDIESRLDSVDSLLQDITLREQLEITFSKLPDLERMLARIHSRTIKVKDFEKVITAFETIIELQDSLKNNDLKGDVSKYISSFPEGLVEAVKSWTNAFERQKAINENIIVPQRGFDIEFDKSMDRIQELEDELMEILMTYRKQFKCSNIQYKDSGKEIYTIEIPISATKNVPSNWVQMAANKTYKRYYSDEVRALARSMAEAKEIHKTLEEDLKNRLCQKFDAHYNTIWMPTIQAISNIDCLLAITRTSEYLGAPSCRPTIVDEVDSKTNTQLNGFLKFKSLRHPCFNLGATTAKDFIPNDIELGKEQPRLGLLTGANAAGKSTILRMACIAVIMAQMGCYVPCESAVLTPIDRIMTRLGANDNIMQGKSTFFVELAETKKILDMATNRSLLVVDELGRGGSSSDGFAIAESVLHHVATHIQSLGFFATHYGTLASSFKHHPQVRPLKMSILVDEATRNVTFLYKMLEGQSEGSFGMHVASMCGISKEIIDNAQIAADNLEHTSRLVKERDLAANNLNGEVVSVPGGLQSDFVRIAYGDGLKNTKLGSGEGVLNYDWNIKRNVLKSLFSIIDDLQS
Assay: UV cross-linking of [γ-32P]ATP, SDS-PAGE, phosphorimaging
Format: binding
Details: labelled compound; reference complex; no Mg2+, EDTA, pH 8, on ice; Msh2 site at 60 μM ATP, Msh6 site at 1 μM ATP

SMILES: Nc1ncnc2c1ncn2[C@@H]1O[C@H](COP(=O)(O)OP(=O)(O)OP(=O)(O)O)[C@@H](O)[C@H]1O [ATP]
- UV cross-linking of [γ-32P]ATP, SDS-PAGE, phosphorimaging: ATP binding at these concentrations was compared with WT Msh2–Msh6
